Measured values: the kinase profiling compilation of Christmann-Franck et al. (2016)

What was measured:
PIM1 (human) [1] = target: PIM1 (human) (UniProt P11309); assay: KINOMEscan competition binding; conditions: compound 10.0 µM
STK17B (human) = STK17B (human) (UniProt O94768); assay: KINOMEscan competition binding; conditions: compound 10.0 µM
GAK (human) = GAK (human) (UniProt O14976); assay: KINOMEscan competition binding; conditions: compound 10.0 µM
RIPK4 (human) = RIPK4 (human) (UniProt P57078); assay: KINOMEscan competition binding; conditions: compound 10.0 µM
CLK4 (human) = CLK4 (human) (UniProt Q9HAZ1); assay: KINOMEscan competition binding; conditions: compound 10.0 µM
PLK4 (human) = PLK4 (human) (UniProt O00444); assay: KINOMEscan competition binding; conditions: compound 10.0 µM
TLK1 (human) = TLK1 (human) (UniProt Q9UKI8); assay: KINOMEscan competition binding; conditions: compound 10.0 µM
AAK1 (human) = AAK1 (human) (UniProt Q2M2I8); assay: KINOMEscan competition binding; conditions: compound 10.0 µM
MAP3K7 (human) = MAP3K7 (human) (UniProt O43318); assay: KINOMEscan competition binding; conditions: compound 10.0 µM
DAPK2 (human) = DAPK2 (human) (UniProt Q9UIK4); assay: KINOMEscan competition binding; conditions: compound 10.0 µM
CSNK2A1 (human) = CSNK2A1 (human) (UniProt P68400); assay: KINOMEscan competition binding; conditions: compound 10.0 µM
DAPK1 (human) = DAPK1 (human) (UniProt P53355); assay: KINOMEscan competition binding; conditions: compound 10.0 µM
MAPKAPK5 (human) = MAPKAPK5 (human) (UniProt Q8IW41); assay: KINOMEscan competition binding; conditions: compound 10.0 µM
PIP4K2B (human) = PIP4K2B (human) (UniProt P78356); assay: KINOMEscan competition binding; conditions: compound 10.0 µM
Chain of PIP4K2B (human) (P78356 whole entry, looked up): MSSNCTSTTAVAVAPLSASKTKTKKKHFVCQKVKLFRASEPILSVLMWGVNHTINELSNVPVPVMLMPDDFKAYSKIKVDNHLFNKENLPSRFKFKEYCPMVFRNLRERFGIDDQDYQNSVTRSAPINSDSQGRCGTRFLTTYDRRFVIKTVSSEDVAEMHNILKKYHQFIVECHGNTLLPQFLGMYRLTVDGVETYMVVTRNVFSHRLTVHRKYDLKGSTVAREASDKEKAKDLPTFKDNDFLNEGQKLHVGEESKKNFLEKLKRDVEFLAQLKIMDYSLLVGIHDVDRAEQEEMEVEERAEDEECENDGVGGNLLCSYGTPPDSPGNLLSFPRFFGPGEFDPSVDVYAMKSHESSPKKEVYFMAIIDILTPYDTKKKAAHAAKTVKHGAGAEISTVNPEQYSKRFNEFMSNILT

MKNK2 (human) = MKNK2 (human) (UniProt Q9HBH9); assay: KINOMEscan competition binding; conditions: compound 10.0 µM
DAPK3 (human) = DAPK3 (human) (UniProt O43293); assay: KINOMEscan competition binding; conditions: compound 10.0 µM
MAP2K3 (human) = MAP2K3 (human) (UniProt P46734); assay: KINOMEscan competition binding; conditions: compound 10.0 µM
[2] = target: TYK2 JH2 pseudokinase (human) (UniProt P29597); assay: KINOMEscan competition binding; conditions: compound 10.0 µM
PIM3 (human) = PIM3 (human) (UniProt Q86V86); assay: KINOMEscan competition binding; conditions: compound 10.0 µM
[3] = target: JAK1 JH2 pseudokinase (human) (UniProt P23458); assay: KINOMEscan competition binding; conditions: compound 10.0 µM
PIM2 (human) [4] = target: PIM2 (human) (UniProt Q9P1W9); assay: KINOMEscan competition binding; conditions: compound 10.0 µM
Chain of PIM2 (human) (Q9P1W9 whole entry, looked up): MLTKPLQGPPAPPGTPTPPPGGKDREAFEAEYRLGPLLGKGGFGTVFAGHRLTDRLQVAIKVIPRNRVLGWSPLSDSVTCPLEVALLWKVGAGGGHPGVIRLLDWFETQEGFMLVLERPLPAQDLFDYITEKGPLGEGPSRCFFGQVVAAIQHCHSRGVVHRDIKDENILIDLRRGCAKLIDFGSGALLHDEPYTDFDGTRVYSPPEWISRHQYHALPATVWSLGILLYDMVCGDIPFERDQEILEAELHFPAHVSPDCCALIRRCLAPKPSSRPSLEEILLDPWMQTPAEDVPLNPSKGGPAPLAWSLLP

CSNK2A2 (human) = CSNK2A2 (human) (UniProt P19784); assay: KINOMEscan competition binding; conditions: compound 10.0 µM
MAPK15 (human) = MAPK15 (human) (UniProt Q8TD08); assay: KINOMEscan competition binding; conditions: compound 10.0 µM
HIPK1 (human) = HIPK1 (human) (UniProt Q86Z02); assay: KINOMEscan competition binding; conditions: compound 10.0 µM
RPS6KA6 KD2 (human) = RPS6KA6 KD2 (human) (UniProt Q9UK32); assay: KINOMEscan competition binding; conditions: compound 10.0 µM
CLK3 (human) = CLK3 (human) (UniProt P49761); assay: KINOMEscan competition binding; conditions: compound 10.0 µM
PIK3CG (human) = PIK3CG (human) (UniProt P48736); assay: KINOMEscan competition binding; conditions: compound 10.0 µM
Chain of PIK3CG (human) (P48736 whole entry, looked up): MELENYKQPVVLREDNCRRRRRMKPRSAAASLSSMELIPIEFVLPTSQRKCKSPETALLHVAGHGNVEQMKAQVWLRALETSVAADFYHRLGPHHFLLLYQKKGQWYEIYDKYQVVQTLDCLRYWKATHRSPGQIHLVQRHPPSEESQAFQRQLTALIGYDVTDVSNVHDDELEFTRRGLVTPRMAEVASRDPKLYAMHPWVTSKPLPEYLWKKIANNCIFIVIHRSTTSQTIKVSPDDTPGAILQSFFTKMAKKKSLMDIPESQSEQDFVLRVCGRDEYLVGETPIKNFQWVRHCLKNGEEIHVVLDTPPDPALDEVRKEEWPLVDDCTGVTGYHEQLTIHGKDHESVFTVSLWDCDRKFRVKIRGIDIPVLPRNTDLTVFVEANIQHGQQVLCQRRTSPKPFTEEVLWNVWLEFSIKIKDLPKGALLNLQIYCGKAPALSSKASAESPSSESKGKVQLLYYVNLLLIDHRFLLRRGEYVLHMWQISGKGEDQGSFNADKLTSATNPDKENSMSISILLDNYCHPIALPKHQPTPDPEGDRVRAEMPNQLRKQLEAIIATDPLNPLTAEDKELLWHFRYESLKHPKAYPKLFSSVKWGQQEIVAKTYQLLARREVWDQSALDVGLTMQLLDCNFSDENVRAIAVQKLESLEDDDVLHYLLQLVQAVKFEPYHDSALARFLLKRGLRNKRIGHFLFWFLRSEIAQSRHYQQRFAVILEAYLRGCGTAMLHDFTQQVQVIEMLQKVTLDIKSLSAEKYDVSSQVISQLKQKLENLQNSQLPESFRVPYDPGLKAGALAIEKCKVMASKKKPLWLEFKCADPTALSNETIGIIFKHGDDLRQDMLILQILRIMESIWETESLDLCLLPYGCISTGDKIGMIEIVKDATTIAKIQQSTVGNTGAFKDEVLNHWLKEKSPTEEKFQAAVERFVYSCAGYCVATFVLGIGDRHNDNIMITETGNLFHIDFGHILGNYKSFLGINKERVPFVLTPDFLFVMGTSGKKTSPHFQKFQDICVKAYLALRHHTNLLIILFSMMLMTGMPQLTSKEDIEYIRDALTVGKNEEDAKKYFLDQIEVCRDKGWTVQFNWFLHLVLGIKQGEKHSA

CLK2 (human) = CLK2 (human) (UniProt P49760); assay: KINOMEscan competition binding; conditions: compound 10.0 µM
CDK7 (human) = CDK7 (human) (UniProt P50613); assay: KINOMEscan competition binding; conditions: compound 10.0 µM
Chain of CDK7 (human) (P50613 whole entry, looked up): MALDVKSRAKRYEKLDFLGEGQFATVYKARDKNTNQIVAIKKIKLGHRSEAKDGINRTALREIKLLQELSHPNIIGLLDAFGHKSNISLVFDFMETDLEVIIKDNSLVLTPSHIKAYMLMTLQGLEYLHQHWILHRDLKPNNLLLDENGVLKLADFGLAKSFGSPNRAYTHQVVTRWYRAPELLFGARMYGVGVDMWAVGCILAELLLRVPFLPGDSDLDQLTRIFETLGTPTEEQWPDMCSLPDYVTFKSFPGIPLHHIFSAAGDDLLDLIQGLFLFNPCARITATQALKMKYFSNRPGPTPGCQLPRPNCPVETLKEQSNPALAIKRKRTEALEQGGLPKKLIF

STK24 (human) = STK24 (human) (UniProt Q9Y6E0); assay: KINOMEscan competition binding; conditions: compound 10.0 µM
Chain of STK24 (human) (Q9Y6E0 whole entry, looked up): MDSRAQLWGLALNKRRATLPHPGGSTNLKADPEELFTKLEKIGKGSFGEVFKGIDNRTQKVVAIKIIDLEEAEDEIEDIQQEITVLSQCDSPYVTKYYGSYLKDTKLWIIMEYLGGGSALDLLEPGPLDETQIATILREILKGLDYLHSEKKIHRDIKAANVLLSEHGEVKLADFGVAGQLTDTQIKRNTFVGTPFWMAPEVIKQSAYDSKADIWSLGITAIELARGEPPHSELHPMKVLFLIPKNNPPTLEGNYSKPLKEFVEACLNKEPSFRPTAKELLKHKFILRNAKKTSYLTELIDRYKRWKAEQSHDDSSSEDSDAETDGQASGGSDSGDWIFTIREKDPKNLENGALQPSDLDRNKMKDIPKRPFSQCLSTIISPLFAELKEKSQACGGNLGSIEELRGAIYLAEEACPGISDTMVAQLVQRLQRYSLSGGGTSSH

ROCK2 (human) = ROCK2 (human) (UniProt O75116); assay: KINOMEscan competition binding; conditions: compound 10.0 µM
BMPR1B (human) = BMPR1B (human) (UniProt O00238); assay: KINOMEscan competition binding; conditions: compound 10.0 µM
TAOK3 (human) = TAOK3 (human) (UniProt Q9H2K8); assay: KINOMEscan competition binding; conditions: compound 10.0 µM
RIOK2 (human) = RIOK2 (human) (UniProt Q9BVS4); assay: KINOMEscan competition binding; conditions: compound 10.0 µM
Chain of RIOK2 (human) (Q9BVS4 whole entry, looked up): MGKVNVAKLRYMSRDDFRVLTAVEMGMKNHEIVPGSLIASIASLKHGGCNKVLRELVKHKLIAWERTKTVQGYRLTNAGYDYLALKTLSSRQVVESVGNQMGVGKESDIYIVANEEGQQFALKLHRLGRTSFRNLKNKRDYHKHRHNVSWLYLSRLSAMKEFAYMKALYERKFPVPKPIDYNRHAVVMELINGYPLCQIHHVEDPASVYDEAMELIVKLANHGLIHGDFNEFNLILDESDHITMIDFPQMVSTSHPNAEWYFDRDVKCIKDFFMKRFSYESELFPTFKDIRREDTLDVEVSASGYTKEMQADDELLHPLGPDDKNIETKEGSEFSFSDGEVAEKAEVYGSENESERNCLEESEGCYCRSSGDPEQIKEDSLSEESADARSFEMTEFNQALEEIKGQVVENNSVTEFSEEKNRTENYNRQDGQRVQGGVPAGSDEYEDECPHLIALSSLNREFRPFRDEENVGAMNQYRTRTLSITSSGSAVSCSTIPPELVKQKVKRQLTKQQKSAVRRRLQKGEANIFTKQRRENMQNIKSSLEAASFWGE

MYLK3 (human) = MYLK3 (human) (UniProt Q32MK0); assay: KINOMEscan competition binding; conditions: compound 10.0 µM
RPS6KA1 KD2 (human) = RPS6KA1 KD2 (human) (UniProt Q15418); assay: KINOMEscan competition binding; conditions: compound 10.0 µM
STK17A (human) = STK17A (human) (UniProt Q9UEE5); assay: KINOMEscan competition binding; conditions: compound 10.0 µM
RPS6KA2 KD2 (human) = RPS6KA2 KD2 (human) (UniProt Q15349); assay: KINOMEscan competition binding; conditions: compound 10.0 µM
MAP2K2 (human) = MAP2K2 (human) (UniProt P36507); assay: KINOMEscan competition binding; conditions: compound 10.0 µM
Chain of MAP2K2 (human) (P36507 whole entry, looked up): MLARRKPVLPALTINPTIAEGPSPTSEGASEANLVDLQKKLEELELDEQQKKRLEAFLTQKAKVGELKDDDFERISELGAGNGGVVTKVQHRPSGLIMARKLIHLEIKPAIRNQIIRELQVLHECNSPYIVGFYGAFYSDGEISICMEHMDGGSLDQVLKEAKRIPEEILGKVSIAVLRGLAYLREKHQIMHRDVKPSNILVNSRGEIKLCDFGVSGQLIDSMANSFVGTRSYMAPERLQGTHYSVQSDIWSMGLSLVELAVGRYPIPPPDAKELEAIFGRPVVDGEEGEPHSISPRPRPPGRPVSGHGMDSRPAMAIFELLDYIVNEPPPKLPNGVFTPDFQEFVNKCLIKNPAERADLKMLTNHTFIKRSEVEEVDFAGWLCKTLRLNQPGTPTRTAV

MYLK (human) = MYLK (human) (UniProt Q15746); assay: KINOMEscan competition binding; conditions: compound 10.0 µM
CDK16 (human) = CDK16 (human) (UniProt Q00536); assay: KINOMEscan competition binding; conditions: compound 10.0 µM
Chain of CDK16 (human) (Q00536 whole entry, looked up): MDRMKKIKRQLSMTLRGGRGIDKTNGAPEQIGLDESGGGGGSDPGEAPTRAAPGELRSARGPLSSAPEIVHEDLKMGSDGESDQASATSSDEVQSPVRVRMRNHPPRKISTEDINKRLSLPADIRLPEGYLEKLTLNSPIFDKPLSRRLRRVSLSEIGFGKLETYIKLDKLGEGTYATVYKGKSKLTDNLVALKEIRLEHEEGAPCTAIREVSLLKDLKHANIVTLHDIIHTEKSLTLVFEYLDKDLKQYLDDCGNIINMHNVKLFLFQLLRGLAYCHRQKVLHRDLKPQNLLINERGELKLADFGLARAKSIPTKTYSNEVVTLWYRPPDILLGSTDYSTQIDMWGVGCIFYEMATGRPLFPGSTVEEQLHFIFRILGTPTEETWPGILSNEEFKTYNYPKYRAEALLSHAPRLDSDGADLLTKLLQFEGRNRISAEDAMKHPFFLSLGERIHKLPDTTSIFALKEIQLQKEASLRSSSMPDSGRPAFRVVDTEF

CLK1 (human) = CLK1 (human) (UniProt P49759); assay: KINOMEscan competition binding; conditions: compound 10.0 µM
CAMKK1 (human) = CAMKK1 (human) (UniProt Q8N5S9); assay: KINOMEscan competition binding; conditions: compound 10.0 µM
RPS6KA4 KD2 (human) = RPS6KA4 KD2 (human) (UniProt O75676); assay: KINOMEscan competition binding; conditions: compound 10.0 µM
TAOK1 (human) = TAOK1 (human) (UniProt Q7L7X3); assay: KINOMEscan competition binding; conditions: compound 10.0 µM
PIM1 (human) [5] = target: PIM1 (human) (UniProt P11309); assay: SelectScreen, TR FRET
PIM2 (human) [6] = target: PIM2 (human) (UniProt Q9P1W9); assay: SelectScreen, TR FRET

Chain of PIM1 (human) (P11309 whole entry, looked up): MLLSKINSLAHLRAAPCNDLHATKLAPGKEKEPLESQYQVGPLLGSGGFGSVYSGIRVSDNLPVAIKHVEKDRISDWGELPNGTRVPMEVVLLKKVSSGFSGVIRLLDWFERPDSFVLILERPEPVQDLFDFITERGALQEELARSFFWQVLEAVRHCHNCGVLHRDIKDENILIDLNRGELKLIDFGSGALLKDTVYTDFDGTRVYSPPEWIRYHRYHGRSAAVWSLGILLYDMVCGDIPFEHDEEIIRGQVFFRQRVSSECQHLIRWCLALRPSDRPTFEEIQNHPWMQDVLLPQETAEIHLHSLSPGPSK

**Q.** Which results are given for `N=C1NC(=O)/C(=C/c2ccc(-c3ccc(C(=O)Nc4ccc(N5CCNCC5)cc4)cc3O)o2)S1`?
**A.** kinase still bound, per cent of control (PIM1 (human) [1]): 5.6%; kinase still bound, per cent of control (STK17B (human)): 0.6%; kinase still bound, per cent of control (GAK (human)): 29%; kinase still bound, per cent of control (RIPK4 (human)): 5.5%; kinase still bound, per cent of control (CLK4 (human)): 5.8%; kinase still bound, per cent of control (PLK4 (human)): 23%; kinase still bound, per cent of control (TLK1 (human)): 14%; kinase still bound, per cent of control (AAK1 (human)): 31%; kinase still bound, per cent of control (MAP3K7 (human)): 8.6%; kinase still bound, per cent of control (DAPK2 (human)): 14%; kinase still bound, per cent of control (CSNK2A1 (human)): 20%; kinase still bound, per cent of control (DAPK1 (human)): 12%; kinase still bound, per cent of control (MAPKAPK5 (human)): 32%; kinase still bound, per cent of control (PIP4K2B (human)): 34%; kinase still bound, per cent of control (MKNK2 (human)): 27%; kinase still bound, per cent of control (DAPK3 (human)): 15%; kinase still bound, per cent of control (MAP2K3 (human)): 30%; kinase still bound, per cent of control [2]: 10%; kinase still bound, per cent of control (PIM3 (human)): 9%; kinase still bound, per cent of control [3]: 26%; kinase still bound, per cent of control (PIM2 (human) [4]): 0.5%; kinase still bound, per cent of control (CSNK2A2 (human)): 19%; kinase still bound, per cent of control (MAPK15 (human)): 0.95%; kinase still bound, per cent of control (HIPK1 (human)): 0.65%; kinase still bound, per cent of control (RPS6KA6 KD2 (human)): 27%; kinase still bound, per cent of control (CLK3 (human)): 25%; kinase still bound, per cent of control (PIK3CG (human)): 2.1%; kinase still bound, per cent of control (CLK2 (human)): 2%; kinase still bound, per cent of control (CDK7 (human)): 3.2%; kinase still bound, per cent of control (STK24 (human)): 25%; kinase still bound, per cent of control (ROCK2 (human)): 21%; kinase still bound, per cent of control (BMPR1B (human)): 19%; kinase still bound, per cent of control (TAOK3 (human)): 7.4%; kinase still bound, per cent of control (RIOK2 (human)): 29%; kinase still bound, per cent of control (MYLK3 (human)): 15%; kinase still bound, per cent of control (RPS6KA1 KD2 (human)): 21%; kinase still bound, per cent of control (STK17A (human)): 0.1%; kinase still bound, per cent of control (RPS6KA2 KD2 (human)): 25%; kinase still bound, per cent of control (MAP2K2 (human)): 33%; kinase still bound, per cent of control (MYLK (human)): 32%; kinase still bound, per cent of control (CDK16 (human)): 18%; kinase still bound, per cent of control (CLK1 (human)): 2.4%; kinase still bound, per cent of control (CAMKK1 (human)): 32%; kinase still bound, per cent of control (RPS6KA4 KD2 (human)): 3.4%; kinase still bound, per cent of control (TAOK1 (human)): 5.4%; IC50 (PIM1 (human) [5]): 0.128 µM; IC50 (PIM2 (human) [6]): 0.144 µM
